{"source": "patent US6355799B1", "about": "“Substituted benzene compounds, process for their preparation, and herbicidal and defoliant compositions containing them” (ISK Americas Incorporated, priority 1997, dated 2002)", "format_in_all_cases": "in vivo", "key": {"[1]": {"test_system": "field corn (Zea mays L., var. Dekalb 535, CORN)", "experiment": "Post-emerge test, crop safety", "details": "post-emerge, 14 days after application, rating scale 0-100", "procedure,_shortened": "(§1)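 Rating: 0–100 visual injury, 14 DAA. Application: acetone, 187 l/ha, 15–1000 g ai/ha, flat-fan track sprayer with nozzle 40–45 cm above soil or canopy. Post-emerge runs used 0.25% v/v surfactant on 2–3 leaf plants.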"}, "[2]": {"test_system": "upland rice (Oryza sp., var. Tebonnet, RICE)", "experiment": "Post-emerge test, crop safety", "details": "post-emerge, 14 days after application, rating scale 0-100", "procedure,_shortened": "as §1"}, "[3]": {"test_system": "barnyardgrass (Echinochloa crus-galli, ECHCG)", "experiment": "Pre-emerge test, greenhouse herbicide activity screening", "details": "phytotoxicity rating 0-100, 14 days after application", "text": "(§2) A standard greenhouse herbicide activity screening system was used to evaluate the herbicidal efficacy and crop safety of these test compounds. Seven broadleaf weed species including redroot pigweed (Amaranthus retroflexus, AMARE, velvetleaf (Abutilon theophrasti, ABUTH), sicklepod (Cassia obtusifolia, CASOB), ivyleaf morningglory (Ipomoea hederacea, IPOHE), lambsquarters (Chenopodium album, CHEAL), common ragweed (Ambrosia artemisizfolia L., AMBEL), and cocklebur (Xanthium strumarium, XANST) were used as test species. Four grass weed species including green foxtail (Setaria viridis, SETVI), barnyardgrass (Echinochloa crus-galli, ECHCG), johnsongrass (Sorghum halepense, SORHA), and large crabgrass (Digitaria sanguinalis, DIGSA) were also used. In addition, three crop species, field corn (Zea mays L., var. Dekalb 535, CORN), soybean (Glycine max L., var. Pella 86, SOY), and is upland rice (Oryza sp., var. Tebonnet, RICE) were included.\n(§3) All plants were grown in 10 cm square plastic pots which were filled with a sandy loam soil mix. For pre-emerge tests, seeds were planted one day prior to application of the test compounds. For post-emerge tests, seeds were planted 8-21 days prior to the test to allow emergence and good foliage development prior to application of the test substances. At the time of the post-emerge application, plants of all species were usually at the 2-3 leaf stage of development.\n(§4) All test compounds Were dissolved in acetone and applied to the test units in a volume of 187 l /ha. Test materials were applied at rates ranging from 15 g ai/ha to 1000 g ai/ha using a track sprayer equipped with a TJ8001E even flow flat fan spray nozzle. Plants were arranged on a shelf so that the top of the canopy (post-emerge) or top of the soil surface (pre-emerge) was 40-45 cm below the nozzle. Pressurized air was used to force the test solution through the nozzle as it was mechanically advanced (via electrically driven chain drive) over the top of all test plants/pots. This application simulates a typical commercial field herbicide application.\n(§5) In the post-emerge test, a commercial non-ionic surfactant was also included (0.25% v/v) to enhance wetting of the leaf surfaces of target plants. Immediately after application, test units of the pre-emerge applications were watered at the soil surface to incorporate the test materials. Subsequently, these test units were bottom-watered. Post-emerge test units were always bottom-watered.\n(§6) At 14 days after application of the test materials, phytotoxicity ratings were recorded. A rating scale of 0-100 was used as previously described in Research Methods in Weed Science, 2nd edition, B. Truelove, Ed., Southern Weed Science Society, Auburn University, Auburn, Ala. 1977. Briefly, “0” corresponds to no damage and “100” corresponds to complete death of all plants in the test unit. This scale was used both to determine efficacy against weed species and damage to crop species. Herbicide activity data for various compounds of this invention, which are shown by compound No. in Tables 1-8, are shown in Tables 11 and 12."}, "[4]": {"test_system": "green foxtail (Setaria viridis, SETVI)", "experiment": "Pre-emerge test, greenhouse herbicide activity screening", "details": "phytotoxicity rating 0-100, 14 days after application", "text": "as §2, §3, §4, §5, §6"}, "[5]": {"test_system": "sicklepod (Cassia obtusifolia, CASOB)", "experiment": "Pre-emerge test, greenhouse herbicide activity screening", "details": "phytotoxicity rating 0-100, 14 days after application", "text": "as §2, §3, §4, §5, §6"}, "[6]": {"test_system": "velvetleaf (Abutilon theophrasti, ABUTH)", "experiment": "Pre-emerge test, greenhouse herbicide activity screening", "details": "phytotoxicity rating 0-100, 14 days after application", "text": "as §2, §3, §4, §5, §6"}, "[7]": {"test_system": "lambsquarters (Chenopodium album, CHEAL)", "experiment": "Pre-emerge test, greenhouse herbicide activity screening", "details": "phytotoxicity rating 0-100, 14 days after application", "text": "as §2, §3, §4, §5, §6"}, "[8]": {"test_system": "large crabgrass (Digitaria sanguinalis, DIGSA)", "experiment": "Pre-emerge test, greenhouse herbicide activity screening", "details": "phytotoxicity rating 0-100, 14 days after application", "text": "as §2, §3, §4, §5, §6"}, "[9]": {"test_system": "ivyleaf morningglory (Ipomoea hederacea, IPOHE)", "experiment": "Pre-emerge test, greenhouse herbicide activity screening", "details": "phytotoxicity rating 0-100, 14 days after application", "text": "as §2, §3, §4, §5, §6"}, "[10]": {"test_system": "field corn (Zea mays L., var. Dekalb 535, CORN)", "experiment": "Pre-emerge test, crop safety", "details": "crop damage rating 0-100, 14 days after application", "procedure,_shortened": "(§7)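 Compounds in acetone were track-sprayed at 187 l/ha, 15–1000 g ai/ha, onto sandy loam pots. Pre-emerge seeds were sown one day before spraying, with surface watering afterwards. Post-emerge plants were at the 2–3 leaf stage and sprayed with 0.25% v/v non-ionic surfactant. Injury was rated 0–100 at 14 days.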"}, "[11]": {"test_system": "upland rice (Oryza sp., var. Tebonnet, RICE)", "experiment": "Pre-emerge test, crop safety", "details": "crop damage rating 0-100, 14 days after application", "procedure,_shortened": "as §7"}, "[12]": {"test_system": "redroot pigweed (Amaranthus retroflexus, AMARE)", "experiment": "Pre-emerge test, greenhouse herbicide activity screening", "details": "phytotoxicity rating 0-100, 14 days after application", "procedure,_shortened": "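Plants grown in 10 cm pots of sandy loam mix received acetone-dissolved compounds through a moving flat-fan nozzle. Doses ranged from 15 to 1000 g ai/ha. Pre-emerge pots were seeded one day earlier, post-emerge pots 8–21 days earlier. Fourteen days on, each pot was graded 0–100 for damage.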"}, "[13]": {"test_system": "barnyardgrass (Echinochloa crus-galli, ECHCG)", "experiment": "Post-emerge test, greenhouse herbicide activity screening", "details": "post-emerge, 14 days after application, rating scale 0-100", "text": "as §2, §3, §4, §5, §6"}, "[14]": {"test_system": "green foxtail (Setaria viridis, SETVI)", "experiment": "Post-emerge test, greenhouse herbicide activity screening", "details": "post-emerge, 14 days after application, rating scale 0-100", "text": "as §2, §3, §4, §5, §6"}, "[15]": {"test_system": "sicklepod (Cassia obtusifolia, CASOB)", "experiment": "Post-emerge test, greenhouse herbicide activity screening", "details": "post-emerge, 14 days after application, rating scale 0-100", "text": "as §2, §3, §4, §5, §6"}, "[16]": {"test_system": "velvetleaf (Abutilon theophrasti, ABUTH)", "experiment": "Post-emerge test, greenhouse herbicide activity screening", "details": "post-emerge, 14 days after application, rating scale 0-100", "text": "as §2, §3, §4, §5, §6"}, "[17]": {"test_system": "lambsquarters (Chenopodium album, CHEAL)", "experiment": "Post-emerge test, greenhouse herbicide activity screening", "details": "post-emerge, 14 days after application, rating scale 0-100", "text": "as §2, §3, §4, §5, §6"}, "[18]": {"test_system": "redroot pigweed (Amaranthus retroflexus, AMARE)", "experiment": "Post-emerge test, greenhouse herbicide activity screening", "details": "post-emerge, 14 days after application", "text": "as §2, §3, §4, §5, §6"}, "[19]": {"test_system": "large crabgrass (Digitaria sanguinalis, DIGSA)", "experiment": "Post-emerge test, greenhouse herbicide activity screening", "details": "post-emerge, 14 days after application, rating scale 0-100", "text": "as §2, §3, §4, §5, §6"}, "[20]": {"test_system": "ivyleaf morningglory (Ipomoea hederacea, IPOHE)", "experiment": "Post-emerge test, greenhouse herbicide activity screening", "details": "post-emerge, 14 days after application, rating scale 0-100", "text": "as §2, §3, §4, §5, §6"}}}
{"smiles": "COc1c(Cl)cc(F)c(-n2c(=O)cc(C(F)(F)F)n(C)c2=O)c1NC(=O)OC(C)c1ccccc1", "note": "(stereo not shown) [4-47]", "values": [{"measurement": "phytotoxicity rating CORN (crop damage)", "setting": "[1]; 63 g ai/ha", "result": 30}, {"measurement": "phytotoxicity rating CORN (crop damage)", "setting": "[1]; 250 g ai/ha", "result": 65}, {"measurement": "phytotoxicity rating RICE (crop damage)", "setting": "[2]; 63 g ai/ha", "result": 30}, {"measurement": "phytotoxicity rating RICE (crop damage)", "setting": "[2]; 250 g ai/ha", "result": 60}, {"measurement": "Pre-emerge Herbicidal Activity ECHCG", "setting": "[3]; 63 g ai/ha", "result": 60}, {"measurement": "Pre-emerge Herbicidal Activity ECHCG", "setting": "[3]; 250 g ai/ha", "result": 98}, {"measurement": "Pre-emerge Herbicidal Activity SETVI", "setting": "[4]; 63 g ai/ha", "result": 80}, {"measurement": "Pre-emerge Herbicidal Activity SETVI", "setting": "[4]; 250 g ai/ha", "result": 100}, {"measurement": "Pre-emerge Herbicidal Activity CASOB", "setting": "[5]; 63 g ai/ha", "result": 0}, {"measurement": "Pre-emerge Herbicidal Activity CASOB", "setting": "[5]; 250 g ai/ha", "result": 70}, {"measurement": "Pre-emerge Herbicidal Activity ABUTH", "setting": "[6]; 63 g ai/ha", "result": 100}, {"measurement": "Pre-emerge Herbicidal Activity ABUTH", "setting": "[6]; 250 g ai/ha", "result": 100}, {"measurement": "Pre-emerge Herbicidal Activity CHEAL", "setting": "[7]; 63 g ai/ha", "result": 100}, {"measurement": "Pre-emerge Herbicidal Activity CHEAL", "setting": "[7]; 250 g ai/ha", "result": 100}, {"measurement": "Pre-emerge Herbicidal Activity DIGSA", "setting": "[8]; 63 g ai/ha", "result": 70}, {"measurement": "Pre-emerge Herbicidal Activity DIGSA", "setting": "[8]; 250 g ai/ha", "result": 100}, {"measurement": "Pre-emerge Herbicidal Activity IPOHE", "setting": "[9]; 63 g ai/ha", "result": 30}, {"measurement": "Pre-emerge Herbicidal Activity IPOHE", "setting": "[9]; 250 g ai/ha", "result": 100}, {"measurement": "Pre-emerge Herbicidal Activity CORN", "setting": "[10]; 63 g ai/ha", "result": 30}, {"measurement": "Pre-emerge Herbicidal Activity CORN", "setting": "[10]; 250 g ai/ha", "result": 90}, {"measurement": "Pre-emerge Herbicidal Activity RICE", "setting": "[11]; 63 g ai/ha", "result": 20}, {"measurement": "Pre-emerge Herbicidal Activity RICE", "setting": "[11]; 250 g ai/ha", "result": 70}, {"measurement": "Pre-emerge Herbicidal Activity AMARE", "setting": "[12]; 63 g ai/ha", "result": 70}, {"measurement": "Pre-emerge Herbicidal Activity AMARE", "setting": "[12]; 250 g ai/ha", "result": 100}, {"measurement": "phytotoxicity rating ECHCG", "setting": "[13]; 63 g ai/ha", "result": 30}, {"measurement": "phytotoxicity rating ECHCG", "setting": "[13]; 250 g ai/ha", "result": 50}, {"measurement": "phytotoxicity rating SETVI", "setting": "[14]; 63 g ai/ha", "result": 40}, {"measurement": "phytotoxicity rating SETVI", "setting": "[14]; 250 g ai/ha", "result": 60}, {"measurement": "phytotoxicity rating CASOB", "setting": "[15]; 63 g ai/ha", "result": 100}, {"measurement": "phytotoxicity rating CASOB", "setting": "[15]; 250 g ai/ha", "result": 100}, {"measurement": "phytotoxicity rating ABUTH", "setting": "[16]; 63 g ai/ha", "result": 100}, {"measurement": "phytotoxicity rating ABUTH", "setting": "[16]; 250 g ai/ha", "result": 10}, {"measurement": "phytotoxicity rating CHEAL", "setting": "[17]; 63 g ai/ha", "result": 100}, {"measurement": "phytotoxicity rating CHEAL", "setting": "[17]; 250 g ai/ha", "result": 100}, {"measurement": "phytotoxicity rating AMARE", "setting": "[18]; 63 g ai/ha, rating scale 0-100 (0 no damage, 100 complete death)", "result": 75}, {"measurement": "phytotoxicity rating AMARE", "setting": "[18]; 250 g ai/ha, rating scale 0-100", "result": 95}, {"measurement": "phytotoxicity rating DIGSA", "setting": "[19]; 63 g ai/ha", "result": 40}, {"measurement": "phytotoxicity rating DIGSA", "setting": "[19]; 250 g ai/ha", "result": 30}, {"measurement": "phytotoxicity rating IPOHE", "setting": "[20]; 63 g ai/ha", "result": 85}, {"measurement": "phytotoxicity rating IPOHE", "setting": "[20]; 250 g ai/ha", "result": 100}]}
